Reference: ChEMBL document CHEMBL1156829 (Proc Natl Acad Sci U S A, 2008)

Columns and labels:
Plasmodium falciparum [1] = experiment: NOVARTIS: Inhibition of Plasmodium falciparum W2 (drug-resistant) proliferation in erythrocyte-based infection assay; format: functional, organism-based; settings: Plasmodium falciparum, W2; read-out: EC50
[2] = NOVARTIS: Cytotoxicity against human hepatocellular carcinoma cell line (Huh7); format: toxicity, cell-based, Huh-7; settings: Huh7 cells (hepatocellular carcinoma cell line)
Plasmodium falciparum [3] = experiment: NOVARTIS: Inhibition of Plasmodium falciparum 3D7 (drug-susceptible) proliferation in erythrocyte-based infection assay; format: functional, organism-based; settings: Plasmodium falciparum, 3D7

In the case of COc1ccc(OC)c(/C=C/C(=O)Nc2ccc3nc(N4CCN(C)CC4)cc(C)c3c2)c1, the EC50 (Plasmodium falciparum [1]) is reported as greater than 873 nM, the CC50 [2] is reported as greater than 10000 nM and the EC50 (Plasmodium falciparum [3]) is reported as greater than 1250 nM.

With CCc1ccc2c(c1)C1(NN=C(c3ccc(C)cc3)S1)C(=O)N2 (stereo not drawn) the EC50 (Plasmodium falciparum [1]) was 2100 nM, the CC50 [2] was 23800 nM and the EC50 (Plasmodium falciparum [3]) was 1490 nM.

For Oc1ccc(Nc2ccnc3cc(Cl)ccc23)cc1, the EC50 (Plasmodium falciparum [1]) was 3520 nM, the CC50 [2] was 39700 nM and the EC50 (Plasmodium falciparum [3]) was 3370 nM.

Compound Cc1ccc(C(=O)N(CCc2ccccc2)C(C)c2nc3ccccc3c(=O)n2-c2cccc(Cl)c2C)cc1[N+](=O)[O-] (stereo not drawn) has an EC50 (Plasmodium falciparum [1]) of 887 nM, a CC50 [2] greater than 10000 nM and an EC50 (Plasmodium falciparum [3]) greater than 1620 nM.

CCN(CC)C(CN1CCN(CC(C)C(=O)c2ccc(O)cc2)CC1)c1ccc(F)cc1 (stereo not drawn) gave an EC50 (Plasmodium falciparum [1]) of 4310 nM, a CC50 [2] of 49000 nM and an EC50 (Plasmodium falciparum [3]) of 1950 nM.

Compound CCc1ccc(-n2c(C(CC)N(CCc3ccc(OC)c(OC)c3)C(=O)C(CC)c3ccccc3)nc3ccccc3c2=O)cc1 (stereo not drawn) has an EC50 (Plasmodium falciparum [1]) greater than 867 nM, a CC50 [2] greater than 10000 nM and an EC50 (Plasmodium falciparum [3]) greater than 1250 nM.

With COc1ccc(CCn2c(SCC(=O)N3CCN(c4ccccc4OC)CC3)nc3ccccc3c2=O)cc1OC the EC50 (Plasmodium falciparum [1]) was greater than 864 nM, the CC50 [2] was greater than 10000 nM and the EC50 (Plasmodium falciparum [3]) was greater than 1250 nM.

NCCCCCCNC(=S)Nc1ccccc1 gave an EC50 (Plasmodium falciparum [1]) greater than 859 nM, a CC50 [2] greater than 10000 nM and an EC50 (Plasmodium falciparum [3]) greater than 1410 nM.

With COc1cc(C=NNC(=O)Cc2nnc(N)s2)ccc1O the EC50 (Plasmodium falciparum [1]) was greater than 1120 nM, the CC50 [2] was greater than 12700 nM and the EC50 (Plasmodium falciparum [3]) was greater than 1250 nM.

Work on CC1CCCCN1CCCNc1ncc(C(=O)NCc2ccccc2)c(NCCc2ccccc2)n1 (stereo not drawn) yielded an EC50 (Plasmodium falciparum [1]) greater than 878 nM, a CC50 [2] greater than 10000 nM and an EC50 (Plasmodium falciparum [3]) of 247 nM.

Compound Cc1ccc(-c2nc3cc(NC(=O)c4ccc([N+](=O)[O-])o4)ccc3o2)cc1Br has an EC50 (Plasmodium falciparum [1]) of 6490 nM, a CC50 [2] of 74000 nM and an EC50 (Plasmodium falciparum [3]) of 6920 nM.

In the case of CCOC(=O)c1c(NC(=O)COc2ccccc2[N+](=O)[O-])sc(C(C)=O)c1C, the EC50 (Plasmodium falciparum [1]) is reported as greater than 853 nM, the CC50 [2] is reported as greater than 10000 nM and the EC50 (Plasmodium falciparum [3]) is reported as greater than 1250 nM.

For O=C(NCC1CCCO1)c1ccc([N+](=O)[O-])cc1Cl (stereo not drawn), the EC50 (Plasmodium falciparum [1]) was greater than 877 nM, the CC50 [2] was greater than 10000 nM and the EC50 (Plasmodium falciparum [3]) was greater than 1120 nM.

For CCc1ccc(C(=O)N(C)CCCNc2ccnc3cc(Cl)ccc23)cc1, the EC50 (Plasmodium falciparum [1]) was 250 nM, the CC50 [2] was 2860 nM and the EC50 (Plasmodium falciparum [3]) was 337 nM.

For CCCCN1C(=O)/C(=C/N(C(=O)CC)c2ccccc2)SC1=S, the EC50 (Plasmodium falciparum [1]) was greater than 853 nM, the CC50 [2] was greater than 10000 nM and the EC50 (Plasmodium falciparum [3]) was greater than 699 nM.

With O=C(c1cccs1)N(Cc1cccs1)c1ccc([N+](=O)[O-])cc1 the EC50 (Plasmodium falciparum [1]) was 888 nM, the CC50 [2] was greater than 10000 nM and the EC50 (Plasmodium falciparum [3]) was 677 nM.

Work on COc1ccccc1N1CCN(c2ccc(NC(=O)c3ccc(Br)cc3)cc2C(=O)NCCCN(C)C)CC1 yielded an EC50 (Plasmodium falciparum [1]) of 117 nM, a CC50 [2] of 1340 nM and an EC50 (Plasmodium falciparum [3]) greater than 1250 nM.

CC(C)(C)CC(=O)N1CCC[C@@H]2CN(C(=O)CCOc3ccccc3)CC[C@@H]21 showed an EC50 (Plasmodium falciparum [1]) greater than 874 nM, a CC50 [2] greater than 10000 nM and an EC50 (Plasmodium falciparum [3]) greater than 1250 nM.

In the case of COc1ccc(CNC2CCN(CCN3CCCCC3)C(c3ccc(OCc4ccccc4)cc3)C2)cc1OC (stereo not drawn), the EC50 (Plasmodium falciparum [1]) is reported as 447 nM, the CC50 [2] is reported as 5060 nM and the EC50 (Plasmodium falciparum [3]) is reported as 662 nM.

For CC(NCCN1CCNCC1)c1cc(C(C)(C)C)cc2c1CCC2(C)C (stereo not drawn), the EC50 (Plasmodium falciparum [1]) was 586 nM, the CC50 [2] was 6720 nM and the EC50 (Plasmodium falciparum [3]) was 598 nM.

O=C(O)CCCCCNc1ncnc2sc3c(c12)CCCC3 showed an EC50 (Plasmodium falciparum [1]) of 869 nM, a CC50 [2] greater than 10000 nM and an EC50 (Plasmodium falciparum [3]) greater than 1250 nM.

Compound COc1cc(Br)c(CCNC(=O)Cc2cc(OC)c(OC)cc2Br)cc1OC has an EC50 (Plasmodium falciparum [1]) greater than 8680 nM, a CC50 [2] greater than 100000 nM and an EC50 (Plasmodium falciparum [3]) greater than 8770 nM.

Compound COc1ccc(/C=C/c2ccc3ccccc3[n+]2C)cc1OC has an EC50 (Plasmodium falciparum [1]) of 867 nM, a CC50 [2] greater than 10000 nM and an EC50 (Plasmodium falciparum [3]) of 872 nM.

CC1=NOC(=O)/C1=C/c1ccc(-c2ccc([N+](=O)[O-])cc2)o1 showed an EC50 (Plasmodium falciparum [1]) greater than 865 nM, a CC50 [2] greater than 10000 nM and an EC50 (Plasmodium falciparum [3]) greater than 1250 nM.

Compound CCNc1ncnc2sc(C(=O)NCc3csc(C)n3)c(C)c12 has an EC50 (Plasmodium falciparum [1]) greater than 8590 nM, a CC50 [2] greater than 100000 nM and an EC50 (Plasmodium falciparum [3]) greater than 12500 nM.

With CC(C)CNc1nc(NCCCN2CCCCC2C)ncc1C(=O)NCc1ccccc1 (stereo not drawn) the EC50 (Plasmodium falciparum [1]) was 859 nM, the CC50 [2] was greater than 10000 nM and the EC50 (Plasmodium falciparum [3]) was 236 nM.

In the case of O=C1Nc2ccccc2C1=Nc1ccccc1NS(=O)(=O)c1ccc2ccccc2c1, the EC50 (Plasmodium falciparum [1]) is reported as greater than 857 nM, the CC50 [2] is reported as greater than 10000 nM and the EC50 (Plasmodium falciparum [3]) is reported as greater than 1250 nM.

With CC(c1nc2ccc(Cl)cc2c(=O)n1C)N1CCN(C(=O)C(C)(C)C)CC1 (stereo not drawn) the EC50 (Plasmodium falciparum [1]) was 860 nM, the CC50 [2] was greater than 10000 nM and the EC50 (Plasmodium falciparum [3]) was 1470 nM.

O=C(NCC1CCCO1)c1cc(S(=O)(=O)N2CCCCC2)c[nH]1 (stereo not drawn) showed an EC50 (Plasmodium falciparum [1]) greater than 860 nM, a CC50 [2] greater than 10000 nM and an EC50 (Plasmodium falciparum [3]) greater than 1250 nM.

CCOC(=O)c1ccc(N2CCN(c3ccc(F)cc3)CC2)c(NC(=O)Nc2ccccc2)c1 showed an EC50 (Plasmodium falciparum [1]) greater than 860 nM, a CC50 [2] greater than 10000 nM and an EC50 (Plasmodium falciparum [3]) greater than 1250 nM.

With O=[N+]([O-])c1ccc(Nc2nc(NN=Cc3ccccc3I)nc(Nc3ccccc3)n2)cc1 the EC50 (Plasmodium falciparum [1]) was 2820 nM, the CC50 [2] was 32800 nM and the EC50 (Plasmodium falciparum [3]) was 846 nM.

Fc1ccc(CNc2ccnc3cc(Cl)ccc23)cc1 showed an EC50 (Plasmodium falciparum [1]) greater than 881 nM, a CC50 [2] greater than 10000 nM and an EC50 (Plasmodium falciparum [3]) of 808 nM.

Work on CCOc1nc2c(c(=O)n(C)c(=O)n2C)n1Cc1cccc(Br)c1 yielded an EC50 (Plasmodium falciparum [1]) greater than 885 nM, a CC50 [2] greater than 10000 nM and an EC50 (Plasmodium falciparum [3]) greater than 1620 nM.

Work on C=CCc1cc([N+](=O)[O-])cc2c1OC1(C=C2)N(c2ccccc2)c2ccccc2C1(C)C (stereo not drawn) yielded an EC50 (Plasmodium falciparum [1]) of 885 nM, a CC50 [2] greater than 10000 nM and an EC50 (Plasmodium falciparum [3]) of 396 nM.

COc1cc(C)c(CCNCCCCCCNCCc2cc(OC)c(OC)cc2C)cc1OC showed an EC50 (Plasmodium falciparum [1]) greater than 880 nM, a CC50 [2] greater than 10000 nM and an EC50 (Plasmodium falciparum [3]) of 230 nM.

In the case of CC[C@H]1CN2CC[C@H]1C[C@H]2[C@H](O)c1ccnc2ccccc12, the EC50 (Plasmodium falciparum [1]) is reported as 696 nM, the CC50 [2] is reported as greater than 7910 nM and the EC50 (Plasmodium falciparum [3]) is reported as 183 nM.

For CC(C)N1CCc2c(sc(NC(=O)C(C)(C)C)c2C(N)=O)C1, the EC50 (Plasmodium falciparum [1]) was 6260 nM, the CC50 [2] was 71200 nM and the EC50 (Plasmodium falciparum [3]) was 1040 nM.

Work on O=C1C(=Cc2cc([N+](=O)[O-])cc(Br)c2O)C(=O)c2ccccc21 yielded an EC50 (Plasmodium falciparum [1]) greater than 877 nM, a CC50 [2] greater than 10000 nM and an EC50 (Plasmodium falciparum [3]) greater than 1250 nM.

COc1cc(NC(C)CCCN(Cc2ccc(Cl)cc2)C(=O)C(C)C)c2ncccc2c1 (stereo not drawn) gave an EC50 (Plasmodium falciparum [1]) of 1120 nM, a CC50 [2] of 13200 nM and an EC50 (Plasmodium falciparum [3]) of 1680 nM.

With COc1ccc(-c2nnc(NC(=O)CCN(CCc3ccc(OC)c(OC)c3)C(=O)c3cccc4ccccc34)s2)cc1 the EC50 (Plasmodium falciparum [1]) was greater than 1200 nM, the CC50 [2] was greater than 13600 nM and the EC50 (Plasmodium falciparum [3]) was 934 nM.

CN1CCN(C(=S)NC(=O)/C=C/c2ccc(F)cc2)CC1 gave an EC50 (Plasmodium falciparum [1]) greater than 874 nM, a CC50 [2] greater than 10000 nM and an EC50 (Plasmodium falciparum [3]) greater than 1250 nM.

Compound COC(=O)c1c(-c2ccccc2Cl)csc1N has an EC50 (Plasmodium falciparum [1]) greater than 854 nM, a CC50 [2] greater than 10000 nM and an EC50 (Plasmodium falciparum [3]) greater than 1250 nM.

For CC1C(Br)C(=O)C(Br)C(C)C12CCCC2 (stereo not drawn), the EC50 (Plasmodium falciparum [1]) was greater than 871 nM, the CC50 [2] was greater than 10000 nM and the EC50 (Plasmodium falciparum [3]) was greater than 1250 nM.

For C=CCn1c2cc(C)sc2c2cnn(CC(=O)N3CC(C)CC(C)C3)c(=O)c21 (stereo not drawn), the EC50 (Plasmodium falciparum [1]) was greater than 857 nM, the CC50 [2] was greater than 10000 nM and the EC50 (Plasmodium falciparum [3]) was greater than 1250 nM.

In the case of Cc1nn(C)cc1-c1nc2cnccn2c1NCC1CCCO1 (stereo not drawn), the EC50 (Plasmodium falciparum [1]) is reported as greater than 876 nM, the CC50 [2] is reported as greater than 10000 nM and the EC50 (Plasmodium falciparum [3]) is reported as greater than 1250 nM.

In the case of COc1ccccc1CCNCc1cc(-c2ccc(F)cc2)ccc1O, the EC50 (Plasmodium falciparum [1]) is reported as 869 nM, the CC50 [2] is reported as greater than 10000 nM and the EC50 (Plasmodium falciparum [3]) is reported as 1050 nM.

In the case of CCC1=NN2C(=N)/C(=C/c3cn(CCOc4ccccc4C(C)CC)c4ccccc34)C(=O)N=C2S1 (stereo not drawn), the EC50 (Plasmodium falciparum [1]) is reported as greater than 865 nM, the CC50 [2] is reported as greater than 10000 nM and the EC50 (Plasmodium falciparum [3]) is reported as greater than 1250 nM.

In the case of c1ccc(N=Nc2nnc(Nc3ccccc3)s2)cc1, the EC50 (Plasmodium falciparum [1]) is reported as 884 nM, the CC50 [2] is reported as greater than 10000 nM and the EC50 (Plasmodium falciparum [3]) is reported as 957 nM.

COc1cc(NC(C)CCCN(Cc2ccccc2OC)C(=O)c2cccc(Br)c2)c2ncccc2c1 (stereo not drawn) gave an EC50 (Plasmodium falciparum [1]) of 563 nM, a CC50 [2] greater than 6430 nM and an EC50 (Plasmodium falciparum [3]) greater than 948 nM.

For CCOC(=O)CSc1nc2c(sc(=S)n2-c2ccc(Cl)c(C)c2)c(=O)n1-c1ccccc1OC, the EC50 (Plasmodium falciparum [1]) was greater than 884 nM, the CC50 [2] was greater than 10000 nM and the EC50 (Plasmodium falciparum [3]) was greater than 1250 nM.

CCN(CC)c1nc(S)nc(NC(C)(C)C)n1 showed an EC50 (Plasmodium falciparum [1]) greater than 8810 nM, a CC50 [2] greater than 100000 nM and an EC50 (Plasmodium falciparum [3]) greater than 12500 nM.
